Read-outs that look alike come from different tables or passages of the source.
Experiments:
DNA gyrase from E. coli = target: T1, DNA gyrase from E. coli (Escherichia coli, UniProt P0AES6); experiment: supercoiling HTS plate assay; format: biochemical; settings: IC50 [nM] E. coli DNA gyrase
T1 construct: purchased Inspiralis
Method: (§1) All compounds were tested for their inhibitory activities against DNA gyrase and topo IV from E. coli in supercoiling and relaxation high-throughput plate assays, respectively. Our new series of inhibitors were then tested against a panel of Gram-positive and Gram-negative bacteria.
(§2) Seven concentrations of the inhibitors were used to determine IC50 values which were then calculated with GraphPad Prism 6.0 software. Three independent measurements were performed to determine IC50 values, and mean values are reported as the final result.

topo IV from E. coli = target: T2, topo IV from E. coli (Escherichia coli, UniProt P20083); experiment: relaxation HTS plate assay; format: biochemical
T2 construct: purchased Inspiralis
Method: as §1, §2

A. baumannii ATCC 17978 = experiment: MIC broth microdilution (CLSI); format: cell-based; settings: Acinetobacter baumannii, ATCC17978
Method: (§3) Cation-adjusted Mueller Hinton broth 2 (MHBII) was used for bacterial growth under standard laboratory conditions and for antimicrobial susceptibility tests. MHBII broth was prepared by dissolving 22 g of MHBII powder [containing beef extract (3 g), acid hydrolysate of casein (17.5 g), and starch (1.5 g); Becton Dickinson and Co.] in 1 L of water. To prepare MHBII agar, 14 g of agar (Bacto; Molar Chemicals) was added to 1 L of broth.
(§4) Bacterial strains were inoculated onto MHBII agar plates and grown overnight at 37 °C. Next, three individual colonies from each strain were inoculated into 1 mL of MHBII medium and propagated at 37 °C overnight, with agitation at 250 rpm. For Enterococcus sp., the cells were plated in brain–heart infusion [(BHI) medium] agar plates, and BHI broth was used to determine the MICs. […] Following the dilutions, each well was seeded with 5 × 10^4 bacterial cells (in 100 μL final volume). Each measurement was performed in three parallel replicates, and to avoid possible edge effects in the microwell plates, the outside rows (A, H) were filled with sterile medium. Following the inoculations, the plates were covered with the lids and wrapped in polyethylene plastic bags, to minimize evaporation but to allow O2 transfer. […] After incubation, the OD600 of each well was measured using a microplate reader (Synergy 2; Biotek).

S. aureus ATCC 29213 = experiment: MIC broth microdilution (CLSI); format: cell-based; settings: Staphylococcus aureus, ATCC29213
Method: as §3, §4

[1] = test system: Enterococcus faecalis ATCC 29212; experiment: MIC broth microdilution (CLSI); format: cell-based, E. faecalis; settings: Enterococcus faecalis, ATCC29212; read-out: MIC
Method: as §3, with “MICs (Tables 1 and S1–S3) were determined with a standard serial broth microdilution technique according to Clinical and Laboratory Standards Institute (CLSI) guidelines.[45] Cation-adjusted” for “Cation-adjusted”
(§5) Bacterial strains were inoculated onto MHBII agar plates and grown overnight at 37 °C. Next, three individual colonies from each strain were inoculated into 1 mL of MHBII medium and propagated at 37 °C overnight, with agitation at 250 rpm. For Enterococcus sp., the cells were plated in brain–heart infusion [(BHI) medium] agar plates, and BHI broth was used to determine the MICs. […] The highest final DMSO concentration in the experiments was 0.64% (in the case of the 64 μg/mL concentration of the inhibitor). Following the dilutions, each well was seeded with 5 × 10^4 bacterial cells (in 100 μL final volume). Each measurement was performed in three parallel replicates, and to avoid possible edge effects in the microwell plates, the outside rows (A, H) were filled with sterile medium. Following the inoculations, the plates were covered with the lids and wrapped in polyethylene plastic bags, to minimize evaporation but to allow O2 transfer. The plates were incubated at 37 °C under continuous shaking at 150 rpm for 18 h. After incubation, the OD600 of each well was measured using a microplate reader (Synergy 2; Biotek). The MICs were defined as the antibiotic concentrations which inhibited the growth of the bacterial cultures; that is, the drug concentration where the average OD600 increment of the three technical replicates was below 1.5-fold the background OD increment.

E. coli ATCC 25922 = experiment: MIC broth microdilution (CLSI); format: cell-based; settings: Escherichia coli, ATCC25922; read-out: MIC
Method: as §3, with “MICs (Tables 1 and S1–S3) were determined with a standard serial broth microdilution technique according to Clinical and Laboratory Standards Institute (CLSI) guidelines.[45] Cation-adjusted” for “Cation-adjusted”
as §5

E. faecium ATCC 700221 = experiment: MIC broth microdilution (CLSI); format: cell-based
Method: as §3, with “MICs (Tables 1 and S1–S3) were determined with a standard serial broth microdilution technique according to Clinical and Laboratory Standards Institute (CLSI) guidelines.[45] Cation-adjusted” for “Cation-adjusted”
as §5

[2] = test system: Enterobacter cloacae spp. cloacae ATCC 13047; experiment: MIC broth microdilution (CLSI); format: cell-based; settings: Enterobacter cloacae, ATCC13047; read-out: MIC
Method: as §3, with “MICs (Tables 1 and S1–S3) were determined with a standard serial broth microdilution technique according to Clinical and Laboratory Standards Institute (CLSI) guidelines.[45] Cation-adjusted” for “Cation-adjusted”
as §5

K. pneumoniae ATCC 10031 = experiment: MIC broth microdilution (CLSI); format: cell-based; settings: Klebsiella pneumoniae, ATCC10031; read-out: MIC
Method: as §3, with “MICs (Tables 1 and S1–S3) were determined with a standard serial broth microdilution technique according to Clinical and Laboratory Standards Institute (CLSI) guidelines.[45] Cation-adjusted” for “Cation-adjusted”
as §5

P. aeruginosa ATCC 27853 = experiment: MIC broth microdilution (CLSI); format: cell-based; settings: Pseudomonas aeruginosa, ATCC27853; read-out: MIC
Method: as §3, with “MICs (Tables 1 and S1–S3) were determined with a standard serial broth microdilution technique according to Clinical and Laboratory Standards Institute (CLSI) guidelines.[45] Cation-adjusted” for “Cation-adjusted”
as §5

[3] = test system: S. aureus (MRSA) ATCC 43300; experiment: MIC broth microdilution (CLSI); format: cell-based; settings: Staphylococcus aureus
Method: as §3, with “MICs (Tables 1 and S1–S3) were determined with a standard serial broth microdilution technique according to Clinical and Laboratory Standards Institute (CLSI) guidelines.[45] Cation-adjusted” for “Cation-adjusted”
as §5

[4] = test system: S. aureus (VISA) ATCC 700699; experiment: MIC broth microdilution (CLSI); format: cell-based; settings: Staphylococcus aureus; read-out: MIC
Method: as §3, with “MICs (Tables 1 and S1–S3) were determined with a standard serial broth microdilution technique according to Clinical and Laboratory Standards Institute (CLSI) guidelines.[45] Cation-adjusted” for “Cation-adjusted”
as §5

[5] = read-out: IC50 [nM] E. coli TopoIV
[6] = read-out: MIC [µg/mL] (A. baumannii ATCC 17978)
[7] = read-out: MIC [µg/mL](S. aureus ATCC 29213)
[8] = Enterococcus faecium, ATCC700221, read-out: MIC
[9] = read-out: MIC [µg/mL](S. aureus MRSA ATCC4330)

T2 sequence (P0AFI2 whole entry): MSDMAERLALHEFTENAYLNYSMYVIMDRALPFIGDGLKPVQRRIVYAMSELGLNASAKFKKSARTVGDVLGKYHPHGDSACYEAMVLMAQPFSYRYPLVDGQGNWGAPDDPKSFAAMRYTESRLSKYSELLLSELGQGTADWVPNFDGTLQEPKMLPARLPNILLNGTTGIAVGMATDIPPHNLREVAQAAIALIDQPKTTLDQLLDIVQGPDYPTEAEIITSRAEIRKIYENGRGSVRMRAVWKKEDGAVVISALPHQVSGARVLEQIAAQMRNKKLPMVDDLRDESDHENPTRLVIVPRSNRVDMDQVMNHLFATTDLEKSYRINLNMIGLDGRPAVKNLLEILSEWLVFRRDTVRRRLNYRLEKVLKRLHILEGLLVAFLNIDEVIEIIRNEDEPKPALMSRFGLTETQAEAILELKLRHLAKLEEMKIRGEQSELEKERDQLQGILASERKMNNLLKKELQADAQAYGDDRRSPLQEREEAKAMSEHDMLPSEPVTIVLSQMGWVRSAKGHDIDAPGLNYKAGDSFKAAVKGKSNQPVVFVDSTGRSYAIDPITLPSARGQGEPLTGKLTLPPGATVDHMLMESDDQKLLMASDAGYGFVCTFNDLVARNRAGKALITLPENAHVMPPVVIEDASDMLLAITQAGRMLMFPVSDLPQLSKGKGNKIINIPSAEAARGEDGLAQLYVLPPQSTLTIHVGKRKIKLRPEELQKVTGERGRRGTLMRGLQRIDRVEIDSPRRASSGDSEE
T2 sequence (P20083 whole entry): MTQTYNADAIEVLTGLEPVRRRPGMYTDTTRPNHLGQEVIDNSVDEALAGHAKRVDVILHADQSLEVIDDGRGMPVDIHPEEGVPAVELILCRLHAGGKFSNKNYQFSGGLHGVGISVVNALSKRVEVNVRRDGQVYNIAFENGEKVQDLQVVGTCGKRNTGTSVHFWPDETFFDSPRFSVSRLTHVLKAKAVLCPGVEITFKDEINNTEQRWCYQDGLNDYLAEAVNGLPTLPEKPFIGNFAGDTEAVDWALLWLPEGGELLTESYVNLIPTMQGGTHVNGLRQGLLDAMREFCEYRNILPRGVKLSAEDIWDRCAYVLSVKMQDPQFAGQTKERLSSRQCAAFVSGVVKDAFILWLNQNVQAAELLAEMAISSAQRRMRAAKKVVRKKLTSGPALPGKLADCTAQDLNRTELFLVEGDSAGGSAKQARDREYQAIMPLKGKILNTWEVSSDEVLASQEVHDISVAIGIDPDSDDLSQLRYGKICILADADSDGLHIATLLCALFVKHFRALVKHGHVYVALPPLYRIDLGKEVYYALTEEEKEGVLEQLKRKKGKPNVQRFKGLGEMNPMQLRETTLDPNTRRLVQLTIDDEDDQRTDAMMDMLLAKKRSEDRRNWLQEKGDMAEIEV

Row | SMILES | IC50 (DNA gyrase from E. coli) | IC50 (topo IV from E. coli; read-out: IC50) | IC50 (topo IV from E. coli; [5]) | MIC (A. baumannii ATCC 17978; read-out: MIC) | MIC (A. baumannii ATCC 17978; [6]) | MIC (S. aureus ATCC 29213; read-out: MIC) | MIC (S. aureus ATCC 29213; [7]) | MIC [1] | MIC (E. coli ATCC 25922) | MIC (E. faecium ATCC 700221; [8]) | MIC [2] | MIC (K. pneumoniae ATCC 10031) | MIC (P. aeruginosa ATCC 27853) | MIC ([3]; read-out: MIC) | MIC [3, 9] | MIC [4] | MIC (E. faecium ATCC 700221)
1 | Cc1[nH]c(C(=O)Nc2nc3c(N4CCCC4)cc(C(=O)O)cc3s2)c(Cl)c1Cl [7j, 2-(3,4-Dichloro-5-methyl-1H-pyrrole-2-carboxamido)-4-(pyrrolidin-1-yl)benzo[d]thiazole-6-carboxylic Acid] | < 10 nM | < 100 nM | 68 ± 16 nM | 4 µg/mL | 4 µg/mL | 0.25 µg/mL | 0.25 µg/mL | 0.125 mg/L | 16 mg/L | 0.25 mg/L | > 32 mg/L | 8 mg/L | 4 mg/L | 0.125 µg/mL | 0.125 µg/mL | 0.0625 mg/L | 
2 | Cc1[nH]c(C(=O)Nc2nc3c(N4CCOC4=O)cc(C(=O)O)cc3s2)c(Cl)c1Cl [7m, 2-(3,4-Dichloro-5-methyl-1H-pyrrole-2-carboxamido)-4-(2-oxooxazolidin-3-yl)benzo[d]thiazole-6-carboxylic Acid] | < 10 nM |  | 180 ± 16 nM | > 64 µg/mL | > 64 µg/mL | 64 µg/mL | 64 µg/mL | 4 mg/L | > 64 mg/L | 4 mg/L | > 64 mg/L | 32 mg/L | > 64 mg/L | 64 µg/mL | 64 µg/mL | 8 mg/L | 4 mg/L
